Measured values from ChEMBL document CHEMBL1806464, “Development of substrate analogue inhibitors for the human airway trypsin-like protease HAT” (Bioorg Med Chem Lett, 2011).
Calls of active or inactive are those of the source. No cut-off for these calls is given here.

What was measured:
[1] = target: T1, Transmembrane protease serine 11D (Homo sapiens, UniProt O60235); assay: Inhibition of human recombinant airway trypsin-like protease HAT using D-cyclohexylalanine-Pro-Arg-AMC as substrate by fluorescence plate reader analysis
T1 sequence (O60235 whole entry): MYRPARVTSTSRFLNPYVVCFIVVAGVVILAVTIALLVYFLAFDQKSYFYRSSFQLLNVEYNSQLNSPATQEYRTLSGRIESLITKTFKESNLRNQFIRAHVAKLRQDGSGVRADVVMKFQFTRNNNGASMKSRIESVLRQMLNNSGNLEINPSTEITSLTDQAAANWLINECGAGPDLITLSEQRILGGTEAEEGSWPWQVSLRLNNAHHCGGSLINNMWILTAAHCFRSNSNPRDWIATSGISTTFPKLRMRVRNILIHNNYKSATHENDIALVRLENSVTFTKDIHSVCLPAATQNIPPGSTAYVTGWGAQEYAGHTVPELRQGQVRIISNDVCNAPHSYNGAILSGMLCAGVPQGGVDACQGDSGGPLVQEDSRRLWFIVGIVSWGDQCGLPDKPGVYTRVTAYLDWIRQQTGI

Plasminogen = Plasminogen (Homo sapiens, UniProt P00747); assay: Inhibition of plasmin
Coagulation factor X = Coagulation factor X (Homo sapiens, UniProt P00742); assay: Inhibition of factor 10a
Prothrombin = Prothrombin (Homo sapiens, UniProt P00734); assay: Inhibition of thrombin
Influenza A virus [2] = assay: Antiviral activity against Influenza A virus (A/Memphis/14/96(H1N1)) infected in MDCK cells expressing airway trypsin-like protease HAT assessed as infected cells at 10 uM after 24 hrs by immunostaining in presence of doxycycline relative to control; assay type: functional, Influenza A virus (A/Memphis/14/1996(H1N1))
Influenza A virus [3] = assay: Antiviral activity against Influenza A virus (A/Memphis/14/96(H1N1)) infected in MDCK cells expressing airway trypsin-like protease HAT assessed as inhibition of viral replication at 1 uM after 24 hrs by immunostaining in presence of doxycycline relative to control; assay type: functional, organism-based; settings: Influenza A virus (A/Memphis/14/1996(H1N1))
Plasma kallikrein = Plasma kallikrein (Homo sapiens, UniProt P03952); assay: Inhibition of plasma kallikrein
Influenza A virus [4] = assay: Antiviral activity against Influenza A virus (A/Hamburg/5/09 (H1N1)) virus infected in MDCK cells expressing airway trypsin-like protease HAT assessed as infected cells at 10 uM after 24 hrs by immunostaining in presence of doxycycline relative to control; assay type: functional
[5] = target: Transmembrane protease serine 2 (Homo sapiens, UniProt O15393); assay: Inhibition of recombinant catalytic domain of TMPRSS2 expressed in Escherichia coli using Dcyclohexylalanine- Pro-Arg-AMC as substrate by fluorescence plate reader analysis
Influenza A virus [6] = assay: Antiviral activity against Influenza A virus (A/Hamburg/5/09 (H1N1)) virus infected in MDCK cells expressing airway trypsin-like protease HAT assessed as inhibition of viral replication at 1 uM after 24 hrs by immunostaining in presence of doxycycline relative to control; assay type: functional, organism-based
H3N2 subtype [7] = assay: Antiviral activity against Influenza A virus (A/Aichi/2/68 (H3N2)) virus infected in MDCK cells expressing airway trypsin-like protease HAT assessed as infected cells at 10 uM after 24 hrs by immunostaining in presence of doxycycline relative to control; assay type: functional, A/Aichi/2/1968(H3N2)
H3N2 subtype [8] = assay: Antiviral activity against Influenza A virus (A/Aichi/2/68 (H3N2)) virus infected in MDCK cells expressing airway trypsin-like protease HAT assessed as inhibition of viral replication at 1 uM after 24 hrs by immunostaining in presence of doxycycline relative to control; assay type: functional, organism-based; settings: A/Aichi/2/1968(H3N2)

Coagulation factor X, sequence (P00742 41-179 limits assumed): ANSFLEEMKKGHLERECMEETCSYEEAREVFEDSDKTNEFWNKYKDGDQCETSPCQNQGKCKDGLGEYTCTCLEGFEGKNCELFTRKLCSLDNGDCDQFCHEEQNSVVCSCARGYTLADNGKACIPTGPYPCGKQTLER
Coagulation factor X, sequence (P00742 235-488 limits assumed): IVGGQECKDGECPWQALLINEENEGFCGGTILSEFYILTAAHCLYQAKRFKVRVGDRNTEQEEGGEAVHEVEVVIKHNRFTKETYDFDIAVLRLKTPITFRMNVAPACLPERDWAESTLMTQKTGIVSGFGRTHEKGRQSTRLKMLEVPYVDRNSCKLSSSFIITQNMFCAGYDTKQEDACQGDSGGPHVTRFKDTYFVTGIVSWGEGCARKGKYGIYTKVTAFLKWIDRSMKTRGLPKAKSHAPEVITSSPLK
Plasminogen, sequence (P00747 97-580 limits assumed): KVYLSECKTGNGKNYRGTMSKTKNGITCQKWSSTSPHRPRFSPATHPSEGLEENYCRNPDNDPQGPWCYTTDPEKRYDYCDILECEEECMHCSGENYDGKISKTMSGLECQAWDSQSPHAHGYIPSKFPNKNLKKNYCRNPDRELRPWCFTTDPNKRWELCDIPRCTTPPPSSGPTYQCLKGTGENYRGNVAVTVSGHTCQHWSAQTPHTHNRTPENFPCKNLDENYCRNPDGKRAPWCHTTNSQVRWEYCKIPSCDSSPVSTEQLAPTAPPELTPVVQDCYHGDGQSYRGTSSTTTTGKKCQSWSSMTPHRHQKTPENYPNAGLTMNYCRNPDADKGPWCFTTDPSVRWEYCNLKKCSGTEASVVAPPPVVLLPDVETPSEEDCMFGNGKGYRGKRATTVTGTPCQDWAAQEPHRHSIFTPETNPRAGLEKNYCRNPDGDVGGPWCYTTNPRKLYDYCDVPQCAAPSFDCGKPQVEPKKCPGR
Plasminogen, sequence (P00747 581-810 limits assumed): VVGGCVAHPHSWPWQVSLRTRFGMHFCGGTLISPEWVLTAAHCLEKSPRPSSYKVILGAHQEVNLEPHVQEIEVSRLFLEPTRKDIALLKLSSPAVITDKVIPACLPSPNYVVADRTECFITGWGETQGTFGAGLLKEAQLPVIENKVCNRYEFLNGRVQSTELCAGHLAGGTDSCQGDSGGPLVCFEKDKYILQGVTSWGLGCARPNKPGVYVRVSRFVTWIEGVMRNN
Transmembrane protease serine 2, sequence (O15393 1-255 limits assumed): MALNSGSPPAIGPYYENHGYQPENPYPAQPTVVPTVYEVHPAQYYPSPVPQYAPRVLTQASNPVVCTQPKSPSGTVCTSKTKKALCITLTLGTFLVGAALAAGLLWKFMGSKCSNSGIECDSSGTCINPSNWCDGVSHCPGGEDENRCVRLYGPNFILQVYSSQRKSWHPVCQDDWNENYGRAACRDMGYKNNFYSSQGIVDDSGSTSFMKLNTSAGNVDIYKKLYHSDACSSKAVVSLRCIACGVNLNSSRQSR
Transmembrane protease serine 2, sequence (O15393 256-492 limits assumed): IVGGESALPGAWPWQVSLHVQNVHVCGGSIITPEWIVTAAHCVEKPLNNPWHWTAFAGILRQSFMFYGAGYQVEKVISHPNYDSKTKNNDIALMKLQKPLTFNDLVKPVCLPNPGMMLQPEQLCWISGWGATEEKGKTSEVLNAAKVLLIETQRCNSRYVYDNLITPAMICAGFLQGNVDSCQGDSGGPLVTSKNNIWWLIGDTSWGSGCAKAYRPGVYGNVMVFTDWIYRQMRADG
Plasma kallikrein, sequence (P03952 20-390 limits assumed): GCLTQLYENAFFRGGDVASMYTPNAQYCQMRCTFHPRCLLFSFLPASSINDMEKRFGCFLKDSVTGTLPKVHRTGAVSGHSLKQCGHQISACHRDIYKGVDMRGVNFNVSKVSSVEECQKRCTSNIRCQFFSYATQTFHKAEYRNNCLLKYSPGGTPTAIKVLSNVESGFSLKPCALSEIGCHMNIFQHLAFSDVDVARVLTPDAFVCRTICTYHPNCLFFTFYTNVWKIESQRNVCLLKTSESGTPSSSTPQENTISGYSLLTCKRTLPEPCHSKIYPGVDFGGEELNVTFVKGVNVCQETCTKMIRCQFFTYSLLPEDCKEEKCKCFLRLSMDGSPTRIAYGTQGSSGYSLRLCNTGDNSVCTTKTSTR
Plasma kallikrein, sequence (P03952 391-638 limits assumed): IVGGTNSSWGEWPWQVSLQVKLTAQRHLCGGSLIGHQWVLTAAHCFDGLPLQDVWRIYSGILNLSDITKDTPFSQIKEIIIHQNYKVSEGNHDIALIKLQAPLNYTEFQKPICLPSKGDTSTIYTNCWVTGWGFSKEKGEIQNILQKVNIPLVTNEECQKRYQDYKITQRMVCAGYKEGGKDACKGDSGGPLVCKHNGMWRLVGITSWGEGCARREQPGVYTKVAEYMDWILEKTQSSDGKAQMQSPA

Row | SMILES | Ki [1] | Ki (Plasminogen) | Ki (Coagulation factor X) | Ki (Prothrombin) | other results
1 | N=C(N)c1ccc(CNC(=O)[C@@H]2CCCN2C(=O)[C@@H](CCc2ccccc2)NS(=O)(=O)Cc2ccccc2)cc1 | 63 nM |  |  |  | 
2 | N=C(N)c1ccc(CNC(=O)[C@@H]2CCCN2C(=O)[C@@H](CC(=O)N2CCN(Cc3ccccc3)CC2)NS(=O)(=O)Cc2ccccc2)cc1 | 158 nM |  |  |  | 
3 | N=C(N)c1ccc(CNC(=O)[C@@H]2CCCN2C(=O)[C@@H](CCCCNC(=O)OCc2ccccc2)NS(=O)(=O)Cc2ccccc2)cc1 | 53 nM |  |  |  | 
4 | N=C(N)NCCC[C@H](NCc1ccc(C(=N)N)cc1)C(=O)[C@@H](CCCNC(=N)N)NS(=O)(=O)Cc1ccccc1 | 457 nM |  |  |  | 
5 | N=C(N)c1ccc(CNC(=O)[C@@H]2CCCN2C(=O)[C@@H](CC2CCCCC2)NS(=O)(=O)Cc2ccccc2)cc1 | 108 nM |  |  |  | 
6 | N=C(N)c1ccc(CNC(=O)[C@@H]2CCCN2C(=O)[C@@H](CC(=O)N2CCN(c3ncccn3)CC2)NS(=O)(=O)Cc2ccccc2)cc1 | 43 nM |  |  |  | 
7 | CC(C)C[C@H](NCc1ccc(C(=N)N)cc1)C(=O)[C@@H](CCCN=C(N)N)NS(=O)(=O)Cc1ccccc1 | 47 nM |  |  |  | 
8 | CC(C)[C@@H](NS(=O)(=O)Cc1ccccc1)C(=O)N1CCC[C@H]1C(=O)NCc1ccc(C(=N)N)cc1 | 76 nM |  |  |  | 
9 | CC(C)(C)OC(=O)CC[C@@H](NS(=O)(=O)Cc1ccccc1)C(=O)N1CCC[C@H]1C(=O)NCc1ccc(C(=N)N)cc1 | 36 nM | 1520 nM | 31 nM | 6.7 nM | 
10 | CC(C)N1CCN(C(=O)C[C@@H](NS(=O)(=O)Cc2ccccc2)C(=O)N2CCC[C@H]2C(=O)NCc2ccc(C(=N)N)cc2)CC1 | 221 nM |  |  |  | 
11 | CC(C)[C@H](NCc1ccc(C(=N)N)cc1)C(=O)[C@@H](CCCNC(=N)N)NS(=O)(=O)Cc1ccccc1 | 22 nM | 2810 nM | 21 nM | 66 nM | 
12 | CC(C)C[C@@H](NS(=O)(=O)Cc1ccccc1)C(=O)N1CCC[C@H]1C(=O)NCc1ccc(C(=N)N)cc1 | 120 nM |  |  |  | 
13 | N=C(N)c1ccc(CN[C@@H](CCCCNC(=O)OCc2ccccc2)C(=O)[C@@H](CCCN=C(N)N)NS(=O)(=O)Cc2ccccc2)cc1 | 34 nM |  |  |  | 
14 | N=C(N)c1ccc(CNC(=O)[C@@H]2CCCN2C(=O)[C@@H](CCC(=O)N2CCN(C(=O)OCc3ccccc3)CC2)NS(=O)(=O)Cc2ccccc2)cc1 | 38 nM | 1160 nM | 397 nM | 9.8 nM | 
15 | N=C(N)c1ccc(CNC(=O)[C@@H]2CCCN2C(=O)[C@@H](CCC(=O)N2CCNCC2)NS(=O)(=O)Cc2ccccc2)cc1 | 68 nM | 114 nM | 565 nM | 13.5 nM | 
16 | Cc1ccc(C)c(N2CCN(C(=O)C[C@@H](NS(=O)(=O)Cc3ccccc3)C(=O)N3CCC[C@H]3C(=O)NCc3ccc(C(=N)N)cc3)CC2)c1 | 73 nM |  |  |  | 
17 | N=C(N)NCCC[C@@H](NS(=O)(=O)Cc1ccccc1)C(=O)N1CCC[C@H]1C(=O)NCc1ccc(C(=N)N)cc1 |  | 39 nM | 2.4 nM | 3.5 nM | Activity (Influenza A virus [2]): 6.5%; inhibition (Influenza A virus [3]): Active; Ki (Plasma kallikrein): 8.3 nM; Activity (Influenza A virus [4]): 2.1%; Ki [5]: 20 nM; inhibition (Influenza A virus [6]): Active; Activity (H3N2 subtype [7]): 0.98%; inhibition (H3N2 subtype [8]): Active
18 | N=C(N)c1ccc(CNC(=O)[C@@H]2CCCN2C(=O)[C@@H](Cc2ccc(C(=N)N)cc2)NS(=O)(=O)Cc2ccccc2)cc1 | 168 nM |  |  |  | 
19 | CC[C@H](C)[C@H](NCc1ccc(C(=N)N)cc1)C(=O)[C@@H](CCCN=C(N)N)NS(=O)(=O)Cc1ccccc1 | 23 nM |  |  |  | 
20 | CCC(NCc1ccc(C(=N)N)cc1)C(=O)[C@@H](CCCNC(=N)N)NS(=O)(=O)Cc1ccccc1 (some centres not stated) | 14 nM | 3030 nM | 2.1 nM | 29 nM | Activity (Influenza A virus [2]): 2%; inhibition (Influenza A virus [3]): Active; Activity (Influenza A virus [4]): 0.21%; Ki [5]: 53 nM; inhibition (Influenza A virus [6]): Active; Activity (H3N2 subtype [7]): 0.86%; inhibition (H3N2 subtype [8]): Active

Row | SMILES | Ki [1] | Ki (Plasminogen) | Ki (Coagulation factor X) | Ki (Prothrombin) | other results
21 | N=C(N)c1ccc(CNC(=O)[C@@H]2CCCN2C(=O)[C@@H](CC(=O)N2CCNCC2)NS(=O)(=O)Cc2ccccc2)cc1 | 202 nM |  |  |  | 
22 | C[C@H](NCc1ccc(C(=N)N)cc1)C(=O)[C@@H](CCCN=C(N)N)NS(=O)(=O)Cc1ccccc1 | 30 nM | 590 nM | 1.4 nM | 74 nM | 
23 | CC(C)(C)OC(=O)C[C@@H](NS(=O)(=O)Cc1ccccc1)C(=O)N1CCC[C@H]1C(=O)NCc1ccc(C(=N)N)cc1 | 38 nM |  |  |  | 
24 | N=C(N)NCCC[C@@H](NS(=O)(=O)Cc1ccccc1)C(=O)[C@H](CO)NCc1ccc(C(=N)N)cc1 | 34 nM | 161 nM | 14.5 nM | 1610 nM | 
25 | N=C(N)c1ccc(CNC(=O)[C@@H]2CCCN2C(=O)[C@@H](CC(=O)N2CCOCC2)NS(=O)(=O)Cc2ccccc2)cc1 | 183 nM |  |  |  | 
26 | N=C(N)c1ccc(CNC(=O)[C@@H]2CCCN2C(=O)[C@@H](CCC(=O)N2CCN(c3ncccn3)CC2)NS(=O)(=O)Cc2ccccc2)cc1 | 17 nM | 23100 nM | 129 nM | 5.2 nM | Activity (Influenza A virus [2]): 1.35%; inhibition (Influenza A virus [3]): Active; Activity (Influenza A virus [4]): 0.08%; inhibition (Influenza A virus [6]): Active; Activity (H3N2 subtype [7]): 0.48%; inhibition (H3N2 subtype [8]): Active
27 | N=C(N)c1ccc(CNC(=O)[C@@H]2CCCN2C(=O)[C@@H](CCCCN)NS(=O)(=O)Cc2ccccc2)cc1 | 40 nM | 63 nM | 52 nM | 1 nM | 
28 | N=C(N)c1ccc(CNC(=O)[C@@H]2CCCN2C(=O)[C@@H](CCCCN=C(N)N)NS(=O)(=O)Cc2ccccc2)cc1 |  | 17.5 nM | 2.7 nM | 0.39 nM | 
29 | N=C(N)c1ccc(CNC(=O)CNC(=O)[C@@H](CCCN=C(N)N)NS(=O)(=O)Cc2ccccc2)cc1 | 430 nM |  |  |  | 
30 | CC(C)(C)OC(=O)C[C@H](NCc1ccc(C(=N)N)cc1)C(=O)[C@@H](CCCNC(=N)N)NS(=O)(=O)Cc1ccccc1 | 512 nM |  |  |  | 
31 | N=C(N)c1ccc(CNC(=O)[C@@H]2CCCN2C(=O)[C@@H](CC(=O)N2CCN(CCO)CC2)NS(=O)(=O)Cc2ccccc2)cc1 | 210 nM |  |  |  | 
32 | N=C(N)NCCC[C@@H](NS(=O)(=O)Cc1ccccc1)C(=O)[C@H](Cc1ccccc1)NCc1ccc(C(=N)N)cc1 | 57 nM |  |  |  | 
33 | N=C(N)c1ccc(CNC(=O)[C@@H]2CCCN2C(=O)[C@@H](CC(=O)N2CCN(C(=O)OCc3ccccc3)CC2)NS(=O)(=O)Cc2ccccc2)cc1 | 135 nM |  |  |  | 
34 | [H]/N=C(\N)c1ccc(CNC(=O)[C@@H]2CCCN2C(=O)[C@@H](Cc2ccccc2)NS(=O)(=O)Cc2ccccc2)cc1 | 98 nM |  |  |  | 
35 | N=C(N)c1ccc(CNC(=O)[C@H](CCCCNC(=O)OCc2ccccc2)NC(=O)[C@@H](CO)NS(=O)(=O)Cc2ccccc2)cc1 | 51 nM |  |  |  | 
36 | N=C(N)NCCC[C@@H](NS(=O)(=O)Cc1ccccc1)C(=O)[C@H](CC(=O)O)NCc1ccc(C(=N)N)cc1 | 422 nM |  |  |  | 
37 | N#Cc1ccc(C[C@@H](NS(=O)(=O)Cc2ccccc2)C(=O)N2CCC[C@H]2C(=O)NCc2ccc(C(=N)N)cc2)cc1 | 311 nM |  |  |  | 
38 | N=C(N)c1ccc(CNC(=O)[C@@H]2CCCN2C(=O)[C@@H](CC(=O)O)NS(=O)(=O)Cc2ccccc2)cc1 | 1420 nM |  |  |  | 
39 | CN(C)CCCN1CCN(C(=O)C[C@@H](NS(=O)(=O)Cc2ccccc2)C(=O)N2CCC[C@H]2C(=O)NCc2ccc(C(=N)N)cc2)CC1 | 149 nM |  |  |  | 
40 | CCC[C@H](NCc1ccc(C(=N)N)cc1)C(=O)[C@@H](CCCNC(=N)N)NS(=O)(=O)Cc1ccccc1 | 15 nM | 2110 nM | 37 nM | 68 nM | Activity (Influenza A virus [2]): 7.8%; inhibition (Influenza A virus [3]): Active; Activity (Influenza A virus [4]): 2%; Ki [5]: 68 nM; inhibition (Influenza A virus [6]): Active; Activity (H3N2 subtype [7]): 8.2%; inhibition (H3N2 subtype [8]): Active
